Entries after “also recorded” stand apart in the source; their conditions may differ. Marks after values point to notes of the source that are not given here.
Tests used:
[1] = tested on: arachidonic acid (AA) cascade; experiment: plasma oxylipin/PG levels in LPS induced sepsis in mice;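 note: male C57BL/6N mice given LPS, plasma oxylipins quantified by LC-MS after solid-phase extraction, pretreatment or vehicle given intraperitoneally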; type: in vivo, C57BL/6N mice; details: mice, 24 h after LPS, vs. LPS group
Description: (§3) Twelve week old male C57BL/6N mice (Charles River, Sulzfeld, Germany) were used for all experiments. C57BL/6 male mice (H2^b, 11–13 weeks of age) were obtained from Charles River (Sulzfeld, Germany). Animals were cared for in accordance with the institution’s guidelines for experimental animals and with the guidelines of the American Physiological Society. […] Mice were monitored closely and if they appeared compromised (i.e. inactivity, no intake of food or water) after compound or LPS injection the experiment was terminated.
(§4) Oxylipin levels were analyzed in plasma and tissues by LC-MS following SPE extraction of 200 μl plasma or tissue homogenate (50 mg) on Chromabond C18 ec cartridges (Machery-Nagel, Düren, Germany) [19].
(§5) GraphPad Prism 5.0 (GraphPad Software, San Diego, USA) was used for data analysis, the fitting of dose response curves and calculation of the IC50 values. Statistical differences were determined by Dunnetts test (LPS vs. other groups).

[2] = tested on: arachidonic acid (AA) cascade; experiment: kidney tissue oxylipin/PG levels in LPS induced sepsis in mice;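 note: male C57BL/6N mice challenged with LPS, kidney taken 24 h later, oxylipins quantified by LC-MS after solid-phase extraction of tissue homogenate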
Description: as §3, §4, §5

[3] = target: T1, ovine recombinant COX–1 (Ovis aries, UniProt P05979); experiment: cell-free COX–1 enzyme assay (PGE2 formation, LC-MS); type: biochemical; set-up: purchased Cayman Chemicals/ Biomol, Hamburg, Germany
T1 sequence (P05979 25-600): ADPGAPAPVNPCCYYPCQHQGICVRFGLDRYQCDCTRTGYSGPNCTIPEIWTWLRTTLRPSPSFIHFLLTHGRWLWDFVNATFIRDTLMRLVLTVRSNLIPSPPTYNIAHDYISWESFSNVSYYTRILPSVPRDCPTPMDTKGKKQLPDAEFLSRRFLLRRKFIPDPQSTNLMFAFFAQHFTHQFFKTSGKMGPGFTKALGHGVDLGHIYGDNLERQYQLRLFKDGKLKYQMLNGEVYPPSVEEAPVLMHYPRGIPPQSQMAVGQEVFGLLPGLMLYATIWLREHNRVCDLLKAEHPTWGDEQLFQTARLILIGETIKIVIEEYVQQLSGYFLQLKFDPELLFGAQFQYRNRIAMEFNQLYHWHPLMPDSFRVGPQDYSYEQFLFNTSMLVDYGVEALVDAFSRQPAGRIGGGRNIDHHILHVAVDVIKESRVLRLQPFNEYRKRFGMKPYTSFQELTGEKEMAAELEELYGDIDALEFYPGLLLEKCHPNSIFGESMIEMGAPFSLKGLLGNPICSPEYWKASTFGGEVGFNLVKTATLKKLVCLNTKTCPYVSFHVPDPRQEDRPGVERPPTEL

[4] = tested on: COX–2; details: different murine colitis models; cited from earlier work
[5] = clinical chemistry in plasma (urea, creatinine, AST, ALT, LDH) in LPS induced sepsis in mice; type: in vivo, C57BL/6N mice; details: compound i. p. 100 mg/kg bw 2 h before LPS, 24 h after LPS
[6] = tested on: IL–6; experiment: kidney IL–6 mRNA (qPCR) in LPS induced sepsis in mice; type: in vivo, C57BL/6N mice; details: compound i. p. 100 mg/kg bw 2 h before LPS, 24 h after LPS
Experimental: (§1) Samples were stored at -80°C till further analysis. […] Plasma was generated by centrifugation at 4000 g at 4°C and stored at -80°C till further analysis.
(§2) Tissue sections were stored in RNA-later immediately after organ retrieval. Total RNA was extracted using the RNeasy mini kit system (Qiagen, Hilden, Germany) and transcribed using Superscript II Reverse transcriptase (Invitrogen). Quantitative (q) PCR was performed on […] (Roche Diagnostics, Penzberg, Germany) using FastStart Sybr-Green chemistry. Gene-specific primers for IL–6 (Quantitec QT00098875, Qiagen) and MCP–1 (Quantitec QT00167832, Qiagen) were used for the gene of interest and HPRT served as house keeping gene for normalization (Quantitec QT00166768, Qigaen). Quantification was carried out using qgene software.

[7] = tested on: MCP–1; experiment: kidney MCP–1 mRNA (qPCR) in LPS induced sepsis in mice; type: in vivo, C57BL/6N mice; details: compound i. p. 100 mg/kg bw 2 h before LPS, 24 h after LPS, vs. LPS group
Experimental: as §1, §2

[8] = tested on: COX–2 protein; details: Western Blot, same assay conditions; cited from earlier work
[9] = tested on: COX–2 protein; details: Western Blot, same assay conditions; cited from earlier work; remark: listed apart in the source
[10] = target: T1, ovine recombinant COX–1; details: based on PGE2 formation, n=3, same assay conditions; cited from earlier work
[11] = compound i. p. 100 mg/kg bw 2 h before LPS (10 mg/kg bw i. p.)
[12] = compound i. p. 100 mg/kg bw 2 h before LPS
[13] = kidney tissue 24 h after LPS treatment, LPS +, mean
[14] = kidney tissue 24 h after LPS treatment, LPS +, mean, < = below LOQ
[15] = kidney tissue 24 h after LPS treatment, LPS +, mean, second listing of PGF2α (r9)
[16] = mice, compound i. p. 100 mg/kg bw 2 h before LPS, 24 h after LPS, vs. LPS group

## Oc1ccc(/C=C/c2cc(O)cc(O)c2)cc1 [Resveratrol, resveratrol]
[1]; [11]
  plasma PGE2 level: increased
[1]; compound i. p. 100 mg/kg bw 2 h before LPS (10 mg/kg bw i. p.), listed as resveratrol
  plasma PGE2 level: elevated
[1]; [12]
  sum of linoleic acid (LA) derived epoxy-metabolites in plasma: decrease
[2]; [13]
  1a,1b-dihomo-PGF2α: 3.9^‡ nM
  4,5-DiHDPE: 15 nM
  4-HDHA: 16 nM
  5(6)-EpETrE: 66 nM
  5,6-DiHETrE: 1.5 nM
  5-HEPE: 1.1 nM
  5-HETE: 12 nM
  5-oxo-ETE: 17 nM
  6-keto-PGF1α: 80^* nM
  7,8-DiHDPE: 1.7 nM
  7-HDHA: 2.7 nM
  8(9)-EpETrE: 15 nM
  8,9-DiHETrE: 1.6 nM
  8-HDHA: 16 nM
  8-HETE: 4.2 nM
  8-iPF2a: 3.2^‡ nM
  9(10)-EpODE: 8.2 nM
  9(10)-EpOME: 81 nM
  9(10)-Epoxystearic acid: 40 nM
  9,10,13-TriHOME: 7.4 nM
  9,10-DiHODE: 1.3 nM
  9,10-DiHOME: 22 nM
  9,10-Dihydroxystearic acid: 60 nM
  9,12,13-TriHOME: 45 nM
  9-HETE: 3.1 nM
  9-HODE: 350^* nM
  9-HOTrE: 3.9 nM
  9-oxo-ODE: 43 nM
  10(11)-EpDPE: 30 nM
  10,11-DiHDPE: 2.3 nM
  10-HDHA: 3.5 nM
  11(12)-EpETE: 1.5 nM
  11(12)-EpETrE: 35 nM
  11,12-DiHETrE: 2.6 nM
  11-HDHA: 4.9 nM
  11-HETE: 31^‡ nM
  12(13)-EpODE: 3.4 nM
  12(13)-EpOME: 59 nM
  12,13-DiHOME: 48 nM
  12-HEPE: 2.1 nM
  12-HETE: 24 nM
  13(14)-EpDPE: 24 nM
  13,14-DiHDPE: 3.2 nM
  13,14-dihydro-15-keto-PGF2α: 4.3^‡ nM
  13-HDHA: 11^‡ nM
  13-HODE: 270 nM
  13-HOTrE: 3.6 nM
  13-oxo-ODE: 6.1 nM
  14(15)-EpETE: 1.7 nM
  14(15)-EpETrE: 28 nM
  14,15-DiHETE: 0.62 nM
  14,15-DiHETrE: 7.1 nM
  14-HDHA: 12 nM
  15(16)-EpODE: 24 nM
  15(S)-HETrE: 7.4^‡ nM
  15,16-DiHODE: 20 nM
  15-HETE: 38^‡ nM
  15-oxo-ETE: 7.5 nM
  16(17)-EpDPE: 23 nM
  16,17-DiHDPE: 8.5 nM
  16-HDHA: 6.9 nM
  17(18)-EpETE: 2.5 nM
  17,18-DiHETE: 2.6^* nM
  17-HDHA: 17 nM
  18-HEPE: 1.3 nM
  19(20)-EpDPE: 43 nM
  19,20-DiHDPE: 68 nM
  20-HDHA: 19 nM
  20-HEPE: 5.3 nM
  EKODE: 45 nM
  PGD2: 20^† nM
  PGE1: 11^† nM
  PGE2: 210^‡ nM
  PGF1α: 6.2^† nM
  PGF2α: 70^‡ nM
  TXB2: 3.8^† nM
[2]; [14]
  5,6-DiHETE: < 0.25 nM
  5-iPF2α: < 1.0 nM
  8(9)-EpETE: < 1.0 nM
  12,13-DiHODE: < 2.0 nM
  13,14-dihydro-15-keto-PGE1: 0.6 nM
  20-HETE: < 2.7 nM
  PGD1: 0.72 nM
[2]; [15]
  PGF2α: 70 nM
[2]; [16]
  kidney 6-keto-PGF1α level: increased
  kidney 8-iPGF2α level: increased
  kidney 13,14-dihydro-15-keto-PGE1 level: increased
  kidney PGE2 level: increased
  kidney PGF2α level: increased
[3]
  IC50: 490 nM
  effect on COX–1 dependent PGE2 formation, cell-free enzyme assay: dose-dependently decreased; also recorded: inhibited
[4]
  COX–2 expression and PGE2 production: reduced COX–2 expression and PGE2 production

## Cc1ccc(-c2cc(C(F)(F)F)nn2-c2ccc(S(N)(=O)=O)cc2)cc1 [celecoxib, reference compound]
[1]; [11]
  plasma 6-keto-PGF1α level: below the limit of quantification; also recorded: decreased
  plasma 13,14-dihydro-15-keto-PGE1 level: below the limit of quantification; also recorded: decreased
  plasma 13,14-dihydro-15-keto-PGF2α level: massively decreased
  plasma PG levels (LPS induced PG increase): effectively attenuated; also recorded: reduced
  plasma PGE2 level: massively decreased
  plasma PGF2α level: below the limit of quantification
[1]; [12]
  plasma epoxy- and dihydroxy-fatty acid (FA) metabolites of the CYP pathway: decreased
[2]; [13]
  1a,1b-dihomo-PGF2α: 0.54^* nM
  4,5-DiHDPE: 22^‡ nM
  4-HDHA: 21 nM
  5(6)-EpETrE: 130^† nM
  5,6-DiHETrE: 2.1^‡ nM
  5-HEPE: 1.5^‡ nM
  5-HETE: 16^‡ nM
  5-oxo-ETE: 31 nM
  6-keto-PGF1α: 36 nM
  7,8-DiHDPE: 1.9 nM
  7-HDHA: 4.8^‡ nM
  8(9)-EpETrE: 30^† nM
  8,9-DiHETrE: 1.7 nM
  8-HDHA: 24^‡ nM
  8-HETE: 4.6 nM
  8-iPF2a: 1.2 nM
  9(10)-EpOME: 160^* nM
  9(10)-Epoxystearic acid: 81^† nM
  9,10,13-TriHOME: 4.1 nM
  9,10-DiHODE: 1.3 nM
  9,10-DiHOME: 17^* nM
  9,10-Dihydroxystearic acid: 58 nM
  9,12,13-TriHOME: 24 nM
  9-HETE: 4.0^* nM
  9-HODE: 160 nM
  9-HOTrE: 4.3 nM
  9-oxo-ODE: 51 nM
  10(11)-EpDPE: 70^‡ nM
  10,11-DiHDPE: 2.0 nM
  10-HDHA: 4.3 nM
  11(12)-EpETE: 3.5^* nM
  11(12)-EpETrE: 77^† nM
  11,12-DiHETrE: 1.7^* nM
  11-HDHA: 6.6^* nM
  11-HETE: 10 nM
  12(13)-EpOME: 120^† nM
  12,13-DiHOME: 28^† nM
  12-HEPE: 2.9 nM
  12-HETE: 29 nM
  13(14)-EpDPE: 55^† nM
  13,14-DiHDPE: 1.5^‡ nM
  13,14-dihydro-15-keto-PGF2α: 0.72^† nM
  13-HDHA: 6.0 nM
  13-HODE: 140 nM
  13-HOTrE: 5.2 nM
  13-oxo-ODE: 9.2 nM
  14(15)-EpETE: 4.2^* nM
  14(15)-EpETrE: 57^† nM
  14,15-DiHETE: 0.34^‡ nM
  14,15-DiHETrE: 3.3^‡ nM
  14-HDHA: 17 nM
  15(16)-EpODE: 55 nM
  15(S)-HETrE: 4.0 nM
  15,16-DiHODE: 21 nM
  15-HETE: 19 nM
  15-oxo-ETE: 8.4 nM
  16(17)-EpDPE: 52^‡ nM
  16,17-DiHDPE: 2.8^‡ nM
  16-HDHA: 6.1 nM
  17,18-DiHETE: 2.1^‡ nM
  18-HEPE: 1.3 nM
  19(20)-EpDPE: 78^* nM
  19,20-DiHDPE: 29^‡ nM
  20-HDHA: 18 nM
  20-HEPE: 5.3 nM
  EKODE: 41 nM
  PGD2: 7.4 nM
  PGE1: 2.5 nM
  PGE2: 45 nM
  PGF1α: 1.4^† nM
  PGF2α: 15 nM
  TXB2: 1.3 nM
[2]; [14]
  5-iPF2α: < 1.0 nM
  8(9)-EpETE: 2.4^* nM
  12,13-DiHODE: < 2.0 nM
  13,14-dihydro-15-keto-PGE1: < 0.1 nM
  20-HETE: < 2.7 nM
  PGD1: < 0.50 nM
[2]; [15]
  PGF2α: 15 nM
[2]; [16]
  kidney 13,14-dihydro-15-keto-PGE1 level: <LOQ
  kidney 13,14-dihydro-15-keto-PGE2α level: lowered
[5]
  plasma ALT activity: elevated; also recorded: moderate elevation
  plasma AST activity: elevated; also recorded: moderate elevation
  plasma LDH activity: moderate elevation
  plasma creatinine level: elevation
  plasma urea level: elevation
[6]
  further increase of kidney IL–6 mRNA expression in comparison to LPS group: 9 fold
[7]
  kidney MCP–1 mRNA levels: did not affect

## C[C@@H]1C[C@H]2[C@@H]3CCC4=CC(=O)C=C[C@]4(C)[C@@]3(F)[C@@H](O)C[C@]2(C)[C@@]1(O)C(=O)CO [dexamethasone]
[8]
  COX-2 Expression, primary monocytes: 1 µM - 3 nM: COX-2 ↓
[9]
  COX-2 Expression, HCA-7: no effect (up to 100 µM)
[10]
  IC50 (95% CI), cell-free – COX-1: no effect (up to 100 µM)

— PMC4594923, “Food Polyphenols Fail to Cause a Biologically Relevant Reduction of COX-2 Activity” (PLoS ONE, 2015)
